# Measured values taken from patent publication US20080318943A1, “Compounds and Uses Thereof - 848” (ASTRAZENECA AB, priority 2007, published 2008).
# pKi: −log10 of the molar value.
# Legend:
# [1] = target: T1, GABAA receptor α2β3γ2 (Homo sapiens, UniProt P18507+P47869); assay: Two-electrode voltage-clamp potentiation of GABA EC10 current in Xenopus oocytes, GABAA2; type: cell-based; settings: percentage potentiation of GABA EC10 current divided by that of diazepam
# T1 construct: expressed in transfected cells; host or cells: Xenopus laevis oocytes injected with cRNA
# Protocol: GABAA receptors were heterologously expressed in Xenopus oocytes by injecting cRNA corresponding to human α1, α2, α3, α5, β2, P3 and γ2 subunits of the GABAA receptor genes. The specific subunit combinations (subtypes) were as follows: α1β2γ2, α2β3γ2, α3β3γ2, and α5β3γ2. The EC10 of GABA is approximated for each cell. Stability of GABA-mediated (EC10) current is established. Modulatory effect of test compound is determined and compared across subtypes. […] Thus, the assay can characterize modulatory effects and determine subtype selectivity of test compounds on major subtypes of GABAA receptors.
# Xenopus laevis frogs (Xenopus I, Kalamazoo, Mich.) were anesthetized using 0.15% tricaine. Surgically removed ovarian lobes were teased out in OR2 solution (82 NaCl, 2.5 KCl, 5 HEPES, 1.5 NaH2PO4, 1 MgCl2, 0.1 EDTA, in mM, pH 7.4). The oocytes were defolliculated by incubation in 25 mL OR2 containing 0.2% collagenase 1A (SIGMA) two times for about 60 minutes on a platform shaker and stored in Leibovitz's L-15 medium. Oocytes were injected the following day in 0.5× Leibovitz's L-15 medium containing […] gentamycin, 10 units/ml penicillin, and […] streptomycin.
# Capped cRNAs from the linearized vectors containing human α1, β2 and γ2 subunits of the GABAA receptor genes were mixed in ratio of […]. Oocytes were injected with 25-50 nL of mixed RNA with an appx molar ratio for α1, β2, and γ2 as 1:1:10. Oocyte recordings were done 2-10 days after injection. The same methods apply to subtypes derived from α2β3γ2, α3β3γ2, and α5β3γ2, except for 1:1:1 ratio was used for α, β, and γ subunits.
# All measurements were done in a medium containing ND-96 (96 NaCl, 2 KCl, 1.8 CaCl2.2H2O, 1 MgCl2.6H2O, 5 HEPES, in mM, pH 7.5). Two-electrode voltage-clamp recording was carried out using OpusXpress amplifier (Axon Instruments, Foster City, Calif.), which allows simultaneous recording from 8 oocytes. Oocytes were impaled with two electrodes of 1-2 MΩ tip resistance when filled with 3M KCl. Recordings were begun when membrane potential became stable at potentials negative to −50-−60 mV. Membrane potential was held at −60 mV. […] The concentration of GABA corresponded to the EC10 value calculated for each oocyte. The modulator pulses started 30 s before the GABA pulse so as to allow preincubation with the modulator. A set of 3 pulses with just GABA without modulator was given prior to the modulator-containing pulses to define the baseline GABA response. Two oocytes per each experiment were dedicated to observe the effect of diazepam on GABA response to ensure the presence of γ2 subunit in the GABAA pentameric complex, which imparts diazepam sensitivity to the complex.
# Current amplitude (i) was measured from baseline to peak using Clampfit (Axon Inst., Foster City, Calif.). Potentiation was calculated as percent change from the baseline GABA current flux 100×(imod/icontrol)−1) where imod=current mediated by modulator+GABA and icontrol=current mediated by GABA alone. […] Similarly, a value of −50% potentiation means the presence of modulator caused a 50% decrease in the control current. Various other data shown here were fitted and plotted using GraphPad Prism (GraphPad Software, Inc. San Diego, Calif.). The percentage potentiation was converted to relative potentiation by dividing it with percentage potentiation value obtained from the same assay with diazepam as a control.
# [2] = target: T2, GABAA2 receptors (α2, β3, γ2 receptor subunits transfected into Sf9 cells) (Homo sapiens, UniProt P18507+P47869); assay: GABAA2 Binding Method ([3H]-Flunitrazepam displacement); settings: [3H]-Flunitrazepam ~2 nM, α2β3γ2 Sf9 membranes, 1 hr at 4° C.
# T2 construct: host or cells: Sf9 cells (membranes)
# How it was run: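 Membranes from Sf9 cells expressing α2β3γ2 GABAA receptors incubated with ~2 nM (final) [3H]-flunitrazepam and test compound 1 h at 4 °C, then filtered on GF/B plates with cold-buffer washes. Flumazenil-defined controls; percent of control, IC50 and Ki calculated.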
# [3] = target: T3, GABAA receptor α1β2γ2 (Homo sapiens, UniProt P14867+P18507); assay: Two-electrode voltage-clamp potentiation of GABA EC10 current in Xenopus oocytes, GABAA1; type: cell-based; settings: percentage potentiation of GABA EC10 current divided by that of diazepam
# T3 construct: expressed in transfected cells; host or cells: Xenopus laevis oocytes injected with cRNA
# How it was run: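 Human GABAA receptors expressed in Xenopus oocytes by cRNA injection (α:β:γ molar ratio ~1:1:10 for α1β2γ2, 1:1:1 for α2β3γ2), recorded 2-10 days later by two-electrode voltage clamp at −60 mV in ND-96, pH 7.5. Modulator preapplied 30 s before GABA at per-oocyte EC10. Peak-current percent potentiation over GABA alone, normalised to diazepam.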
# T1 sequence (P47869 29-451): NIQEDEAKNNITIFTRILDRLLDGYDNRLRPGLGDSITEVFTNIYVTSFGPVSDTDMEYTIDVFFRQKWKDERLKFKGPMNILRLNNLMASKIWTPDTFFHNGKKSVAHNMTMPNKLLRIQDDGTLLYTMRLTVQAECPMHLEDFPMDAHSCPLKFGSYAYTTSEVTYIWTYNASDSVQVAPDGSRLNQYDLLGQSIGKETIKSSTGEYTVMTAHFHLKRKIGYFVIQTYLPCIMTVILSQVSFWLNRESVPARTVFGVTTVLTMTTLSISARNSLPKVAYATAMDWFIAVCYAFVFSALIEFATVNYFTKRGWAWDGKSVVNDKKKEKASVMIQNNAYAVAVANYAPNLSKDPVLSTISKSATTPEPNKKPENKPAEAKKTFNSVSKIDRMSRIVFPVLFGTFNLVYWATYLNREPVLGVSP
# T1 sequence (P28472 26-473 partner): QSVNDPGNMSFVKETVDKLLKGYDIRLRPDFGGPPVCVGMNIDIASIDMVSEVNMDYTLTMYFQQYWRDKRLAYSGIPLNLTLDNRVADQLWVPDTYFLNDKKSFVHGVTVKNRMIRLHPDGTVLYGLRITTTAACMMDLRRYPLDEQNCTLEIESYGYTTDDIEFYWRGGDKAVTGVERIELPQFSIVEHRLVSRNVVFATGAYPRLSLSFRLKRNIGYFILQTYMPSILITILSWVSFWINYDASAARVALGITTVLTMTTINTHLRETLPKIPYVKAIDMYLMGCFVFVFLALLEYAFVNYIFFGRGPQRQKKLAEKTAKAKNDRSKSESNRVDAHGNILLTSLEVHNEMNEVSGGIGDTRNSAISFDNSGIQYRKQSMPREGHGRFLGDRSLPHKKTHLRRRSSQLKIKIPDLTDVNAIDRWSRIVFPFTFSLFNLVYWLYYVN
# T1 sequence (P18507 40-475): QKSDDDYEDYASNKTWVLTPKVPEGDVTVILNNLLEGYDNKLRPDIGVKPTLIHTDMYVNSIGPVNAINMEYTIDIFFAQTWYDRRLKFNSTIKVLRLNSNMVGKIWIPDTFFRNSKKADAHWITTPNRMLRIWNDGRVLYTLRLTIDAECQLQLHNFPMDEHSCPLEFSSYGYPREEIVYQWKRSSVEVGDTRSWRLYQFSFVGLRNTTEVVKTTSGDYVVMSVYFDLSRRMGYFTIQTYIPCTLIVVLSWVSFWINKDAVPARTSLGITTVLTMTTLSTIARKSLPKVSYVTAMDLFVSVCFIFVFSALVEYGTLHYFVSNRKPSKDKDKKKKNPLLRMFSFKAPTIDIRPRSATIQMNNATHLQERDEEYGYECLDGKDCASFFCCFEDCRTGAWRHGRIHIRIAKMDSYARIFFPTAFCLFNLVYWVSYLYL
# T2 sequence (P47869 29-451): as the sequence (P47869 29-451) above
# T2 sequence (P28472 26-473 partner): as the sequence (P28472 26-473 partner) above
# T2 sequence (P18507 40-475): as the sequence (P18507 40-475) above
# T3 sequence (P14867 28-456): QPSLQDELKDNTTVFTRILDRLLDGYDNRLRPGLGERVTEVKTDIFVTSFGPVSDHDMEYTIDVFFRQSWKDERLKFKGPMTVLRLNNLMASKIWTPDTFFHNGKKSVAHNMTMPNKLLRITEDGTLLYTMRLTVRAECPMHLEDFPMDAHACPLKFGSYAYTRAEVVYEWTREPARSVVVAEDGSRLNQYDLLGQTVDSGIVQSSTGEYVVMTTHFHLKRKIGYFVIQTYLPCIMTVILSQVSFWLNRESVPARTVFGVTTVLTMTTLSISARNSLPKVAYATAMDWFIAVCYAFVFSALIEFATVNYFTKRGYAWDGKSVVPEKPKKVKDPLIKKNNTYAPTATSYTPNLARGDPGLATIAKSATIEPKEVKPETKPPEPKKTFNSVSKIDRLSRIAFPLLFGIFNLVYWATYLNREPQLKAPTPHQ
# T3 sequence (P47870 25-512 partner limits assumed): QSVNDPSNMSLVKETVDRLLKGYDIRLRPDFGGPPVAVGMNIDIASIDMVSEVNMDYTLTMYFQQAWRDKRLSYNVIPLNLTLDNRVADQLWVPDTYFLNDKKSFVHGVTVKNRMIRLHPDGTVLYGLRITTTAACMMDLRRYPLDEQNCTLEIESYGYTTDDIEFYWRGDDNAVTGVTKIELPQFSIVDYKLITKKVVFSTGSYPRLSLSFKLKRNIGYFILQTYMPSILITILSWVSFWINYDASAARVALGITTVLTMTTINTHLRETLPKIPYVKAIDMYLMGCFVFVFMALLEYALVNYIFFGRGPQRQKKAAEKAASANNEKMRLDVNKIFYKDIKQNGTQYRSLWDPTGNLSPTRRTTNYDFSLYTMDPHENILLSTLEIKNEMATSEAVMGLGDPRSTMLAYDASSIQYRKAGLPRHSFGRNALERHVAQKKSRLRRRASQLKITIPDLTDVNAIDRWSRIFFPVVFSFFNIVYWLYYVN
# T3 sequence (P18507 40-475): as the sequence (P18507 40-475) above
Relative Potentiation for GABAA2 [1],pKi [2],Relative Potentiation for GABAA1 [3],Structure (SMILES)
0.43,8.41,0.017,"Cc1nn(C)cc1-c1cccc2c(N)c3c(nc12)CN(C1CCC1)C3=O [9-Amino-2-cyclobutyl-5-(1,3-dimethyl-1H-pyrazol-4-yl)-2,3-dihydropyrrolo[3,4-b]quinolin-1-one]"
0.18,8.42,0.01,"Cn1cc(-c2cccc3c(N)c4c(nc23)CN(C2CCC2)C4=O)cn1 [9-Amino-2-cyclobutyl-5-(1-methyl-1H-pyrazol-4-yl)-2,3-dihydropyrrolo[3,4-b]quinolin-1-one]"
0.4,9.02,0.11,"COc1ncc(-c2c(F)ccc3c(N)c4c(nc23)CN(C2CCC2)C4=O)c(OC)n1 [9-Amino-2-cyclobutyl-5-(2,4-dimethoxypyrimidin-5-yl)-6-fluoro-2,3-dihydropyrrolo[3,4-b]quinolin-1-one]"
0.47,8.47,0.087,"COc1cnc(OC)c(-c2cccc3c(N)c4c(nc23)CN(C2CCC2)C4=O)c1 [9-Amino-2-cyclobutyl-5-(2,5-dimethoxypyridin-3-yl)-2,3-dihydropyrrolo[3,4-b]quinolin-1-one]"
0.13,8.84,−0.023,"COc1cc(F)c(-c2cccc3c(N)c4c(nc23)CN(C2CCC2)C4=O)c(F)c1 [9-Amino-2-cyclobutyl-5-(2,6-difluoro-4-methoxyphenyl)-2,3-dihydropyrrolo[3,4-b]quinolin-1-one]"
0.21,9.14,0.033,"Nc1c2c(nc3c(-c4ccc(F)nc4F)cccc13)CN(C1CCC1)C2=O [9-Amino-2-cyclobutyl-5-(2,6-difluoropyridin-3-yl)-2,3-dihydropyrrolo[3,4-b]quinolin-1-one]"
0.26,8.38,0.062,"COc1cccc(-c2cccc3c(N)c4c(nc23)CN(C2CCC2)C4=O)c1F [9-Amino-2-cyclobutyl-5-(2-fluoro-3-methoxyphenyl)-2,3-dihydropyrrolo[3,4-b]quinolin-1-one]"
0.29,8.87,0.1,"COc1ccc(F)c(-c2cccc3c(N)c4c(nc23)CN(C2CCC2)C4=O)c1 [9-Amino-2-cyclobutyl-5-(2-fluoro-5-methoxyphenyl)-2,3-dihydropyrrolo[3,4-b]quinolin-1-one]"
0.3,8.37,−0.017,"Cc1ccc(-c2cccc3c(N)c4c(nc23)CN(C2CCC2)C4=O)c(F)n1 [9-Amino-2-cyclobutyl-5-(2-fluoro-6-methylpyridin-3-yl)-2,3-dihydropyrrolo[3,4-b]quinolin-1-one]"
0.24,8.59,−0.002,"Nc1c2c(nc3c(-c4cccnc4F)cccc13)CN(C1CCC1)C2=O [9-Amino-2-cyclobutyl-5-(2-fluoropyridin-3-yl)-2,3-dihydropyrrolo[3,4-b]quinolin-1-one]"
0.41,9.00,0.083,"COc1ccc(-c2c(F)ccc3c(N)c4c(nc23)CN(C2CCC2)C4=O)cc1OC [9-Amino-2-cyclobutyl-5-(3,4-dimethoxyphenyl)-6-fluoro-2,3-dihydropyrrolo[3,4-b]quinolin-1-one]"
0.14,8.66,−0.03,"Nc1c2c(nc3c(-c4nccnc4F)cccc13)CN(C1CCC1)C2=O [9-Amino-2-cyclobutyl-5-(3-fluoropyrazin-2-yl)-2,3-dihydropyrrolo[3,4-b]quinolin-1-one]"
0.19,8.33,0.017,"Nc1c2c(nc3c(-c4ncccc4F)cccc13)CN(C1CCC1)C2=O [9-Amino-2-cyclobutyl-5-(3-fluoropyridin-2-yl)-2,3-dihydropyrrolo[3,4-b]quinolin-1-one]"
0.43,8.33,0.082,"COc1nnccc1-c1cccc2c(N)c3c(nc12)CN(C1CCC1)C3=O [9-Amino-2-cyclobutyl-5-(3-methoxypyridazin-4-yl)-2,3-dihydropyrrolo[3,4-b]quinolin-1-one]"
0.32,9.19,0.1,"COc1cnccc1-c1cccc2c(N)c3c(nc12)CN(C1CCC1)C3=O [9-Amino-2-cyclobutyl-5-(3-methoxypyridin-4-yl)-2,3-dihydropyrrolo[3,4-b]quinolin-1-one]"
0.26,8.08,0.035,"COc1cc(F)ccc1-c1cccc2c(N)c3c(nc12)CN(C1CCC1)C3=O [9-Amino-2-cyclobutyl-5-(4-fluoro-2-methoxyphenyl)-2,3-dihydropyrrolo[3,4-b]quinolin-1-one]"
0.52,9.20,0.083,"COc1ncncc1-c1cccc2c(N)c3c(nc12)CN(C1CCC1)C3=O [9-Amino-2-cyclobutyl-5-(4-methoxy-pyrimidin-5-yl)-2,3-dihydropyrrolo[3,4-b]quinolin-1-one]"
0.13,8.96,0.017,"Cc1ccncc1-c1cccc2c(N)c3c(nc12)CN(C1CCC1)C3=O [9-Amino-2-cyclobutyl-5-(4-methylpyridin-3-yl)-2,3-dihydropyrrolo[3,4-b]quinolin-1-one]"
0.36,8.05,0.066,"COc1ccc(F)cc1-c1cccc2c(N)c3c(nc12)CN(C1CCC1)C3=O [9-Amino-2-cyclobutyl-5-(5-fluoro-2-methoxyphenyl)-2,3-dihydropyrrolo[3,4-b]quinolin-1-one]"
0.33,8.17,0.065,"COc1cc(-c2cccc3c(N)c4c(nc23)CN(C2CCC2)C4=O)c(F)cn1 [9-Amino-2-cyclobutyl-5-(5-fluoro-2-methoxypyridin-4-yl)-2,3-dihydropyrrolo[3,4-b]quinolin-1-one]"
0.26,8.73,0.038,"COc1cncc(-c2cccc3c(N)c4c(nc23)CN(C2CCC2)C4=O)c1 [9-Amino-2-cyclobutyl-5-(5-methoxy-pyridin-3-yl)-2,3-dihydropyrrolo[3,4-b]quinolin-1-one]"

Structure (SMILES),Relative Potentiation for GABAA2 [1],pKi [2],Relative Potentiation for GABAA1 [3]
"Cc1ccc(-c2cccc3c(N)c4c(nc23)CN(C2CCC2)C4=O)nc1 [9-Amino-2-cyclobutyl-5-(5-methylpyridin-2-yl)-2,3-dihydropyrrolo[3,4-b]quinolin-1-one]",0.13,7.90,0.088
